Results: PubChem BioAssay (NCI)
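Dose response: 5 concentrations. Exposure: 48 h. Format: 96-well plates. Endpoint: linear interpolation; highest concentration if not reached. TGI marks complete inhibition of growth.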

Key:
Experiment in all cases: growth of human tumour cells (NCI), 48 h
[1] = tested on: A549 NSCLC
[2] = tested on: HCT-116 colon
[3] = tested on: MOLT-4 leukemia
[4] = tested on: SNB-19 CNS
[5] = tested on: DMS 114 small cell lung
[6] = tested on: M14 melanoma
[7] = tested on: K-562 leukemia
[8] = tested on: HL-60(TB) leukemia
[9] = tested on: RXF 393 renal
[10] = tested on: OVCAR-3 ovarian
[11] = tested on: A498 renal
[12] = tested on: UO-31 renal
[13] = tested on: SF-268 CNS
[14] = tested on: U251 CNS
[15] = tested on: COLO 205 colon
[16] = tested on: NCI-H460 lung
[17] = tested on: OVCAR-8 ovarian
[18] = tested on: SF-295 CNS
[19] = tested on: NCI-H522 lung
[20] = tested on: SK-MEL-5 melanoma
[21] = tested on: LOX IMVI melanoma
[22] = tested on: MALME-3M melanoma
[23] = tested on: UACC-257 melanoma
[24] = tested on: SW-620 colon
[25] = tested on: HCC-2998 colon
[26] = tested on: LXFL 529 NSCLC
[27] = tested on: SNB-78 CNS
[28] = tested on: EKVX NSCLC
[29] = tested on: CCRF-CEM leukemia
[30] = tested on: SNB-75 CNS
[31] = tested on: XF 498 CNS
[32] = tested on: M19-MEL melanoma
[33] = tested on: HOP-62 NSCLC
[34] = tested on: CAKI-1 renal
[35] = tested on: HOP-18 NSCLC
[36] = tested on: SK-OV-3 ovarian
[37] = tested on: 786-0 renal
[38] = tested on: HCT-15 colon
[39] = tested on: DLD-1 colon
[40] = tested on: UACC-62 melanoma
[41] = tested on: RPMI-8226 leukemia
[42] = tested on: SN12C renal
[43] = tested on: SK-MEL-28 melanoma
[44] = tested on: SF-539 CNS
[45] = tested on: KM12 colon
[46] = tested on: OVCAR-4 ovarian
[47] = tested on: TK-10 renal
[48] = tested on: SK-MEL-2 melanoma
[49] = tested on: HT29 colon
[50] = tested on: NCI-H226 lung
[51] = tested on: ACHN renal
[52] = tested on: IGROV1 ovarian
[53] = tested on: DMS 273 small cell lung
[54] = tested on: NCI-H23 lung
[55] = tested on: HOP-92 NSCLC
[56] = tested on: KM20L2 colon
[57] = tested on: OVCAR-5 ovarian
[58] = tested on: PC-3 prostate
[59] = tested on: DU-145 prostate
[60] = tested on: MCF7 breast
[61] = tested on: BT-549 breast
[62] = tested on: MDA-MB-231 breast
[63] = tested on: HS 578T breast
[64] = tested on: SR leukemia
[65] = tested on: T-47D breast
[66] = tested on: MDA-MB-435

Question: For `CC1=[N+]([O-])c2ccccc2C(=O)C1=O`, which TGI [1] is on record?
Answer: > 100 µM

Question: And the TGI [2]?
Answer: > 100 µM

Question: And the TGI [3]?
Answer: > 100 µM

Question: And the TGI [4]?
Answer: > 100 µM

Question: What about the TGI [5] of the same compound?
Answer: > 100 µM

Question: And the TGI [6]?
Answer: > 100 µM

Question: And the TGI [7]?
Answer: > 100 µM

Question: And the TGI [8]?
Answer: > 100 µM

Question: What about the TGI [9] of the same compound?
Answer: > 100 µM

Question: What about the TGI [10] of the same compound?
Answer: > 100 µM

Question: What about the TGI [11] of the same compound?
Answer: > 100 µM

Question: And the TGI [12]?
Answer: > 100 µM

Question: And the TGI [13]?
Answer: > 100 µM

Question: What about the TGI [14] of the same compound?
Answer: > 100 µM

Question: What about the TGI [15] of the same compound?
Answer: > 100 µM

Question: And the TGI [16]?
Answer: > 100 µM

Question: And the TGI [17]?
Answer: > 100 µM

Question: What about the TGI [18] of the same compound?
Answer: > 100 µM

Question: And the TGI [19]?
Answer: 71.4 µM

Question: And the TGI [20]?
Answer: > 100 µM

Question: And the TGI [21]?
Answer: > 100 µM

Question: And the TGI [22]?
Answer: > 100 µM

Question: And the TGI [23]?
Answer: > 100 µM

Question: What about the TGI [24] of the same compound?
Answer: > 100 µM

Question: And the TGI [25]?
Answer: > 100 µM

Question: What about the TGI [26] of the same compound?
Answer: > 100 µM

Question: What about the TGI [27] of the same compound?
Answer: > 100 µM

Question: What about the TGI [28] of the same compound?
Answer: > 100 µM

Question: What about the TGI [29] of the same compound?
Answer: 74.2 µM

Question: What about the TGI [30] of the same compound?
Answer: > 100 µM

Question: What about the TGI [31] of the same compound?
Answer: > 100 µM

Question: What about the TGI [32] of the same compound?
Answer: > 100 µM

Question: And the TGI [33]?
Answer: > 100 µM

Question: What about the TGI [34] of the same compound?
Answer: > 100 µM

Question: What about the TGI [35] of the same compound?
Answer: > 100 µM

Question: What about the TGI [36] of the same compound?
Answer: > 100 µM

Question: And the TGI [37]?
Answer: > 100 µM

Question: And the TGI [38]?
Answer: > 100 µM

Question: What about the TGI [39] of the same compound?
Answer: > 100 µM

Question: What about the TGI [40] of the same compound?
Answer: > 100 µM

Question: And the TGI [41]?
Answer: > 100 µM

Question: What about the TGI [42] of the same compound?
Answer: > 100 µM

Question: What about the TGI [43] of the same compound?
Answer: > 100 µM

Question: And the TGI [44]?
Answer: > 100 µM

Question: And the TGI [45]?
Answer: > 100 µM

Question: What about the TGI [46] of the same compound?
Answer: > 100 µM

Question: What about the TGI [47] of the same compound?
Answer: > 100 µM

Question: What about the TGI [48] of the same compound?
Answer: > 100 µM

Question: What about the TGI [49] of the same compound?
Answer: > 100 µM

Question: And the TGI [50]?
Answer: > 100 µM

Question: What about the TGI [51] of the same compound?
Answer: > 100 µM

Question: What about the TGI [52] of the same compound?
Answer: > 100 µM

Question: What about the TGI [53] of the same compound?
Answer: > 100 µM

Question: And the TGI [54]?
Answer: > 100 µM

Question: And the TGI [55]?
Answer: > 100 µM

Question: And the TGI [56]?
Answer: > 100 µM

Question: And the TGI [57]?
Answer: > 100 µM

Question: With `C=C(C)[C@H]1Cc2c(ccc3c2O[C@@H]2COc4cc(OC)c(OC)cc4[C@@H]2C3=O)O1` as the compound, how does the TGI [58] read?
Answer: 47.5 µM

Question: And the TGI [1]?
Answer: > 100 µM

Question: What about the TGI [2] of the same compound?
Answer: 23.5 µM

Question: What about the TGI [3] of the same compound?
Answer: 45.2 µM

Question: What about the TGI [59] of the same compound?
Answer: 38.9 µM

Question: What about the TGI [4] of the same compound?
Answer: > 100 µM

Question: And the TGI [5]?
Answer: 0.145 µM

Question: What about the TGI [6] of the same compound?
Answer: 24.7 µM

Question: And the TGI [7]?
Answer: > 72.1 µM

Question: What about the TGI [8] of the same compound?
Answer: 0.381 µM

Question: And the TGI [9]?
Answer: 6.41 µM

Question: And the TGI [60]?
Answer: > 84.2 µM

Question: What about the TGI [10] of the same compound?
Answer: 3.05 µM

Question: And the TGI [11]?
Answer: 63.3 µM

Question: What about the TGI [12] of the same compound?
Answer: 58.8 µM

Question: And the TGI [13]?
Answer: 28.2 µM

Question: And the TGI [14]?
Answer: 30.9 µM

Question: And the TGI [15]?
Answer: 0.539 µM

Question: What about the TGI [16] of the same compound?
Answer: 15.8 µM

Question: What about the TGI [17] of the same compound?
Answer: 10.1 µM

Question: What about the TGI [18] of the same compound?
Answer: 38 µM

Question: And the TGI [19]?
Answer: 0.404 µM

Question: And the TGI [61]?
Answer: 9.23 µM

Question: What about the TGI [20] of the same compound?
Answer: 3.04 µM

Question: What about the TGI [21] of the same compound?
Answer: 8.04 µM

Question: And the TGI [22]?
Answer: 48 µM

Question: What about the TGI [23] of the same compound?
Answer: 36.7 µM

Question: And the TGI [24]?
Answer: 82.8 µM

Question: And the TGI [25]?
Answer: 8.12 µM

Question: What about the TGI [26] of the same compound?
Answer: 7.87 µM

Question: And the TGI [27]?
Answer: 45.3 µM

Question: And the TGI [28]?
Answer: > 88.4 µM

Question: What about the TGI [29] of the same compound?
Answer: 71.1 µM

Question: And the TGI [30]?
Answer: 60.5 µM

Question: What about the TGI [62] of the same compound?
Answer: 44.7 µM

Question: What about the TGI [63] of the same compound?
Answer: 0.488 µM

Question: What about the TGI [31] of the same compound?
Answer: 0.302 µM

Question: And the TGI [32]?
Answer: > 73 µM

Question: What about the TGI [33] of the same compound?
Answer: 40.5 µM

Question: What about the TGI [34] of the same compound?
Answer: 63.8 µM

Question: And the TGI [35]?
Answer: > 89.7 µM

Question: And the TGI [36]?
Answer: 48.8 µM

Question: What about the TGI [37] of the same compound?
Answer: > 86.2 µM

Question: And the TGI [38]?
Answer: 40.4 µM

Question: And the TGI [39]?
Answer: > 100 µM

Question: And the TGI [40]?
Answer: 44.7 µM

Question: And the TGI [41]?
Answer: 8.84 µM

Question: What about the TGI [64] of the same compound?
Answer: 22.2 µM

Question: And the TGI [42]?
Answer: 67.5 µM

Question: And the TGI [43]?
Answer: 81.4 µM

Question: What about the TGI [44] of the same compound?
Answer: 3.36 µM

Question: What about the TGI [45] of the same compound?
Answer: 14.3 µM

Question: And the TGI [46]?
Answer: 68.5 µM

Question: And the TGI [47]?
Answer: 54.5 µM

Question: What about the TGI [48] of the same compound?
Answer: 25.3 µM

Question: What about the TGI [49] of the same compound?
Answer: 4.09 µM

Question: And the TGI [50]?
Answer: 31.3 µM

Question: What about the TGI [51] of the same compound?
Answer: 87 µM

Question: What about the TGI [65] of the same compound?
Answer: > 97.1 µM

Question: What about the TGI [52] of the same compound?
Answer: > 100 µM

Question: And the TGI [53]?
Answer: 18.3 µM

Question: What about the TGI [66] of the same compound?
Answer: 0.0642 µM

Question: What about the TGI [54] of the same compound?
Answer: 14.1 µM

Question: And the TGI [55]?
Answer: 18.1 µM

Question: What about the TGI [57] of the same compound?
Answer: > 100 µM
